Consider 18 molecules from US20230133580A1, “MENTHOL-CONTAINING COMPOSITION” (SUNSHO PHARMACEUTICAL CO., LTD., priority 2020, published 2023).

Where a name gives a salt, the structure may show the parent alone.

Data set [1] in a line: l-Menthol dissolution test. The class given is physicochemical. Particulars: for Dissolution: stored at 20° C. The procedure:
The solution was stored at 20° C. and evaluated based on the time during which the solution was maintained in a liquid state without solidifying.
A sample that solidified before being cooled down to 20° C. [e.g., during the process of cooling down to a temperature below the melting point of l-menthol (generally 42 to 45° C.)] or immediately (e.g., within 30 minutes) after being stored at 20° C. was rated D. A sample that was maintained as a solution for a while (e.g., more than 30 minutes) but solidified in less than 24 hours was rated C.

Data set [2] can be described thus: Encapsulation test C (interfacial tension against purified water). The class given is physicochemical. Particulars: against purified water. The procedure:
The interfacial tension was measured with the force tensiometer SIGMA 702 (KSV Instruments LTD).

Setting [3] is: menthol concentration ranging 70 to 50 wt %.
Where [4] appears, read: menthol concentration ranging 60 to 50 wt %.

As for `CCOCCOCC` [1,2-Diethoxyethane], the Dissolution entry in data set [1] (l-Menthol 50, solvent 50 pbw) was “A (A sample that did not solidify in 10 days or more was rated A)”; in data set [1] (l-Menthol 60, solvent 40 pbw), “A (A sample that did not solidify in 10 days or more was rated A)”; in data set [1] (l-Menthol 70, solvent 30 pbw), “A (A sample that did not solidify in 10 days or more was rated A)”. Moreover, the “ability to dissolve menthol (rating)” value in data set [1] (setting [3]) was “A (A sample that did not solidify in 10 days or more was rated A)”.
In the case of `CC(=O)OCCCCCCOC(C)=O` [1,6-Diacetoxyhexane], the Dissolution entry in data set [1] (l-Menthol 50, solvent 50 pbw) is reported as “A (A sample that did not solidify in 10 days or more was rated A)”; in data set [1] (l-Menthol 60, solvent 40 pbw), “A (A sample that did not solidify in 10 days or more was rated A)”; in data set [1] (l-Menthol 70, solvent 30 pbw), “C (A sample that was maintained as a solution for a while (e.g., more than 30 minutes) but solidified in less than 24 hours was rated C)”. Also, the “ability to dissolve menthol (rating)” value in data set [1] (setting [4]) was “A (A sample that did not solidify in 10 days or more was rated A)”.
With `CC(=O)OCCCCCCCCOC(C)=O` [1,8-Diacetoxyoctane], the Dissolution result in data set [1] (l-Menthol 50, solvent 50 pbw) is “A (A sample that did not solidify in 10 days or more was rated A)”; in data set [1] (l-Menthol 60, solvent 40 pbw) it was “C (A sample that was maintained as a solution for a while (e.g., more than 30 minutes) but solidified in less than 24 hours was rated C)”; in data set [1] (l-Menthol 70, solvent 30 pbw), “C (A sample that was maintained as a solution for a while (e.g., more than 30 minutes) but solidified in less than 24 hours was rated C)”. Also, in data set [1] (menthol concentration of 50%), the “ability to dissolve menthol (rating)” value is “A (A sample that did not solidify in 10 days or more was rated A)”.
For the molecule `OCc1ccccc1` [Benzyl alcohol], the Dissolution entry in data set [1] (l-Menthol 80, solvent 20 pbw) was “A (A sample that did not solidify in 10 days or more was rated A)”.
In the case of `O=C(OCc1ccccc1)c1ccccc1` [Benzyl benzoate], the Dissolution result in data set [1] (l-Menthol 50, solvent 50 pbw) is recorded as “B (A sample that solidified in 24 hours or more but less than 10 days was rated B)”; in data set [1] (l-Menthol 60, solvent 40 pbw), “C (A sample that was maintained as a solution for a while (e.g., more than 30 minutes) but solidified in less than 24 hours was rated C)”; in data set [1] (l-Menthol 70, solvent 30 pbw), “C (A sample that was maintained as a solution for a while (e.g., more than 30 minutes) but solidified in less than 24 hours was rated C)”. In addition, in data set [1] (menthol concentration of 50%), the “ability to dissolve menthol (rating)” value is listed as “B (A sample that solidified in 24 hours or more but less than 10 days was rated B)”.
As for `CCOC(=O)/C=C/C(=O)OCC` [Diethyl fumarate], the Dissolution entry in data set [1] (l-Menthol 50, solvent 50 pbw) is recorded as “A (A sample that did not solidify in 10 days or more was rated A)”; in data set [1] (l-Menthol 60, solvent 40 pbw), “A (A sample that did not solidify in 10 days or more was rated A)”; in data set [1] (l-Menthol 70, solvent 30 pbw) it was “C (A sample that was maintained as a solution for a while (e.g., more than 30 minutes) but solidified in less than 24 hours was rated C)”. Also, the “ability to dissolve menthol (rating)” value in data set [1] (setting [4]) is reported as “A (A sample that did not solidify in 10 days or more was rated A)”.
As to `CCOC(=O)CC(=O)OCC` [Diethyl malonate], the interfacial tension in data set [2] (samples containing 80 to 50 wt % l-menthol) was at least 5 mN/m. The Dissolution result in data set [1] (l-Menthol 50, solvent 50 pbw) was “B (A sample that solidified in 24 hours or more but less than 10 days was rated B)”; in data set [1] (l-Menthol 60, solvent 40 pbw), “B (A sample that solidified in 24 hours or more but less than 10 days was rated B)”; in data set [1] (l-Menthol 70, solvent 30 pbw), “B (A sample that solidified in 24 hours or more but less than 10 days was rated B)”; in data set [1] (l-Menthol 80, solvent 20 pbw), “B (A sample that solidified in 24 hours or more but less than 10 days was rated B)”. Moreover, the “ability to dissolve menthol (rating)” value in data set [1] (regardless of the menthol concentration) is “B (A sample that solidified in 24 hours or more but less than 10 days was rated B)”.
`CCOC(=O)CCCCCCCCC(=O)OCC` [Diethyl sebacate] showed an interfacial tension in data set [2] (samples containing 70 to 50 wt % l-menthol) of at least 5 mN/m. Besides, the Dissolution entry in data set [1] (l-Menthol 50, solvent 50 pbw) was “A (A sample that did not solidify in 10 days or more was rated A)”; in data set [1] (l-Menthol 60, solvent 40 pbw), “A (A sample that did not solidify in 10 days or more was rated A)”; in data set [1] (l-Menthol 70, solvent 30 pbw), “A (A sample that did not solidify in 10 days or more was rated A)”; in data set [1] (l-Menthol 80, solvent 20 pbw), “C (A sample that was maintained as a solution for a while (e.g., more than 30 minutes) but solidified in less than 24 hours was rated C)”. Further, in data set [1] (setting [3]), the “ability to dissolve menthol (rating)” value is given as “A (A sample that did not solidify in 10 days or more was rated A)”.
`CCCCOCCOCCOCCCC` [Diethylene glycol dibutyl ether]: the Dissolution entry is reported as “A (A sample that did not solidify in 10 days or more was rated A)” in data set [1] (l-Menthol 50, solvent 50 pbw); “A (A sample that did not solidify in 10 days or more was rated A)” in data set [1] (l-Menthol 60, solvent 40 pbw); “C (A sample that was maintained as a solution for a while (e.g., more than 30 minutes) but solidified in less than 24 hours was rated C)” in data set [1] (l-Menthol 70, solvent 30 pbw). The “ability to dissolve menthol (rating)” value in data set [1] (setting [4]) is on record as “A (A sample that did not solidify in 10 days or more was rated A)”.
With `CC(C)COC(=O)CCCCC(=O)OCC(C)C` [Diisobutyl adipate], the Dissolution entry in data set [1] (l-Menthol 50, solvent 50 pbw) is given as “A (A sample that did not solidify in 10 days or more was rated A)”; in data set [1] (l-Menthol 60, solvent 40 pbw) it was “A (A sample that did not solidify in 10 days or more was rated A)”; in data set [1] (l-Menthol 70, solvent 30 pbw), “A (A sample that did not solidify in 10 days or more was rated A)”; in data set [1] (l-Menthol 80, solvent 20 pbw), “C (A sample that was maintained as a solution for a while (e.g., more than 30 minutes) but solidified in less than 24 hours was rated C)”. For the same molecule, in data set [1] (setting [3]), the “ability to dissolve menthol (rating)” value is reported as “A (A sample that did not solidify in 10 days or more was rated A)”.
Turning to `CCCCCCCCCC(=O)OCC` [Ethyl decanoate], the Dissolution entry is given as “A (A sample that did not solidify in 10 days or more was rated A)” in data set [1] (l-Menthol 50, solvent 50 pbw); “A (A sample that did not solidify in 10 days or more was rated A)” in data set [1] (l-Menthol 60, solvent 40 pbw); “C (A sample that was maintained as a solution for a while (e.g., more than 30 minutes) but solidified in less than 24 hours was rated C)” in data set [1] (l-Menthol 70, solvent 30 pbw). Further, the “ability to dissolve menthol (rating)” value in data set [1] (setting [4]) was “A (A sample that did not solidify in 10 days or more was rated A)”.
For `CCCCCCCCCCCC(=O)OCC` [Ethyl laurate], the Dissolution result in data set [1] (l-Menthol 50, solvent 50 pbw) was “A (A sample that did not solidify in 10 days or more was rated A)”; in data set [1] (l-Menthol 60, solvent 40 pbw) it was “A (A sample that did not solidify in 10 days or more was rated A)”; in data set [1] (l-Menthol 70, solvent 30 pbw), “C (A sample that was maintained as a solution for a while (e.g., more than 30 minutes) but solidified in less than 24 hours was rated C)”. In addition, the “ability to dissolve menthol (rating)” value in data set [1] (setting [4]) is on record as “A (A sample that did not solidify in 10 days or more was rated A)”.
`CCCCCCCCCCCCCCCC(=O)OCC` [Ethyl palmitate]: the Dissolution entry in data set [1] (l-Menthol 50, solvent 50 pbw) is “B (A sample that solidified in 24 hours or more but less than 10 days was rated B)”; in data set [1] (l-Menthol 60, solvent 40 pbw), “B (A sample that solidified in 24 hours or more but less than 10 days was rated B)”; in data set [1] (l-Menthol 70, solvent 30 pbw), “C (A sample that was maintained as a solution for a while (e.g., more than 30 minutes) but solidified in less than 24 hours was rated C)”. In data set [1] (setting [4]), the “ability to dissolve menthol (rating)” value is on record as “B (A sample that solidified in 24 hours or more but less than 10 days was rated B)”.
As for `CC(=O)OCCOC(C)=O` [Ethylene glycol diacetate], the Dissolution result in data set [1] (l-Menthol 50, solvent 50 pbw) is recorded as “C (A sample that was maintained as a solution for a while (e.g., more than 30 minutes) but solidified in less than 24 hours was rated C)”; in data set [1] (l-Menthol 60, solvent 40 pbw), “C (A sample that was maintained as a solution for a while (e.g., more than 30 minutes) but solidified in less than 24 hours was rated C)”; in data set [1] (l-Menthol 70, solvent 30 pbw), “C (A sample that was maintained as a solution for a while (e.g., more than 30 minutes) but solidified in less than 24 hours was rated C)”.
`CCCCOCCOCCCC` [Ethylene glycol dibutyl ether]: the Dissolution result in data set [1] (l-Menthol 50, solvent 50 pbw) is given as “A (A sample that did not solidify in 10 days or more was rated A)”; in data set [1] (l-Menthol 60, solvent 40 pbw) it was “A (A sample that did not solidify in 10 days or more was rated A)”; in data set [1] (l-Menthol 70, solvent 30 pbw), “A (A sample that did not solidify in 10 days or more was rated A)”. For the same molecule, the “ability to dissolve menthol (rating)” value in data set [1] (setting [3]) is on record as “A (A sample that did not solidify in 10 days or more was rated A)”.
Turning to `CCNCCCCCCNCC` [N,N′-diethyl-1,6-hexanediamine], the Dissolution entry is reported as “A (A sample that did not solidify in 10 days or more was rated A)” in data set [1] (l-Menthol 50, solvent 50 pbw); “A (A sample that did not solidify in 10 days or more was rated A)” in data set [1] (l-Menthol 60, solvent 40 pbw); “A (A sample that did not solidify in 10 days or more was rated A)” in data set [1] (l-Menthol 70, solvent 30 pbw). Also, the “ability to dissolve menthol (rating)” value in data set [1] (setting [3]) is on record as “A (A sample that did not solidify in 10 days or more was rated A)”.
On to `CCCC(=O)OCC(COC(=O)CCC)OC(=O)CCC` [Tributyrin], for which the Dissolution entry in data set [1] (l-Menthol 50, solvent 50 pbw) is “B (A sample that solidified in 24 hours or more but less than 10 days was rated B)”; in data set [1] (l-Menthol 60, solvent 40 pbw), “C (A sample that was maintained as a solution for a while (e.g., more than 30 minutes) but solidified in less than 24 hours was rated C)”; in data set [1] (l-Menthol 70, solvent 30 pbw) it was “C (A sample that was maintained as a solution for a while (e.g., more than 30 minutes) but solidified in less than 24 hours was rated C)”. Also, the “ability to dissolve menthol (rating)” value in data set [1] (menthol concentration of 50%) is on record as “B (A sample that solidified in 24 hours or more but less than 10 days was rated B)”.
In the case of `CCOC(=O)CC(O)(CC(=O)OCC)C(=O)OCC` [Triethyl citrate], the Dissolution result in data set [1] (l-Menthol 50, solvent 50 pbw) was “C (A sample that was maintained as a solution for a while (e.g., more than 30 minutes) but solidified in less than 24 hours was rated C)”; in data set [1] (l-Menthol 60, solvent 40 pbw), “C (A sample that was maintained as a solution for a while (e.g., more than 30 minutes) but solidified in less than 24 hours was rated C)”; in data set [1] (l-Menthol 70, solvent 30 pbw) it was “C (A sample that was maintained as a solution for a while (e.g., more than 30 minutes) but solidified in less than 24 hours was rated C)”.
